Tests used:
[1] = system: IPF patients; settings: 26 weeks; cited from earlier work
[2] = target: T1, human LPA1 (Homo sapiens, UniProt Q92633); test: LPA1 functional antagonist assay (LPA-induced calcium flux); type: cell-based; settings: CHO cells overexpressing human LPA1, 10 nM LPA, read-out: hLPA1 IC50
T1 construct: expressed in transfected cells; host or cells: Chinese hamster ovary (CHO) cells
Protocol: The effectiveness of compounds of the present invention as LPA1 inhibitors can be determined in an LPA1 functional antagonist assay as follows:
Chinese hamster ovary cells overexpressing human LPA1 were plated overnight (15,000 cells/well) in poly-D-lysine coated 384-well microplates (Greiner bio-one, Cat #781946) in DMEM/F12 medium (Gibco, Cat #11039). Following overnight culture, cells were loaded with calcium indicator dye (AAT Bioquest Inc, Cat #34601) for 30 minutes at 37° C. The cells were then equilibrated to room temperature for 30 minutes before the assay. Test compounds solubilized in DMSO were transferred to 384 well non-binding surface plates (Corning, Cat #3575) using the Labcyte Echo acoustic dispense and diluted with assay buffer [1×HBSS with calcium/magnesium (Gibco Cat #14025-092), 20 mM HEPES (Gibco Cat #15630-080) and 0.1% fatty acid free BSA (Sigma Cat #A9205)] to a final concentration of 0.5% DMSO. Diluted compounds were added to the cells by FDSS6000 (Hamamatsu) at final concentrations ranging from 0.08 nM to 5 μM. and were then incubated for 20 min at room temperature at which time LPA (Avanti Polar Lipids Cat #857130C) was added at final concentrations of 10 nM to stimulate the cells. The compound IC50 value was defined as the concentration of test compound which inhibited 50% of the calcium flux induced by LPA alone. IC50 values were determined by fitting data to a 4-parameter logistic equation (GraphPad Prism, San Diego Calif.).

[3] = system: nerve-injured mice; settings: pretreatment; cited from earlier work
[4] = system: human foetal lung fibroblasts; settings: bronchoalveolar lavage samples of IPF subjects; cited from earlier work
[5] = system: pancreatic cancer cell lines; settings: ascites from pancreatic cancer patients; cited from earlier work
[6] = system: UUO mice; settings: cited from earlier work
[7] = system: mouse epithelial renal cell line, MCT; settings: MCT cells, co-treatment with LPA; cited from earlier work
[8] = system: highly peritoneal metastatic pancreatic cancer cell line; settings: cited from earlier work

T1 sequence (Q92633 whole entry): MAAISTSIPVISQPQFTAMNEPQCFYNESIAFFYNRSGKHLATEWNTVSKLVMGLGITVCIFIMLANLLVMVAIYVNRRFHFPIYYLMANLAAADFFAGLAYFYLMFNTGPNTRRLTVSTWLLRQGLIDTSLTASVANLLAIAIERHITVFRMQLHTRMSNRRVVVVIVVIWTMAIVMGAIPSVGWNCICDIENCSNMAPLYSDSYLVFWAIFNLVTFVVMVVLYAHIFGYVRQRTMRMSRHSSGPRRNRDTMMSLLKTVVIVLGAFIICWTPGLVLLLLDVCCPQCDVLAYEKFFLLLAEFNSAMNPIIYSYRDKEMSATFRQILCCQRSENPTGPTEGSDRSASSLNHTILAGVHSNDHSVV

IC50 [2] [nM]	Compound	other results
	Cc1noc(-c2ccc(-c3ccc(C4(C(=O)O)CC4)cc3)cc2)c1NC(=O)O[C@H](C)c1ccccc1 [BMS-986020]	rate of FVC (forced vital capacity) decline [1]: significantly reduce the rate of FVC (forced vital capacity) decline
61	CCc1nc(-c2cnn(C)c2CNc2nccc(OCCOC)n2)ncc1O[C@H]1CCC[C@H](C(=O)O)C1 [Example 27, (1S,3S)-3-((4-ethyl-2-(5-(((4-(2-methoxyethoxy)pyrimidin-2-yl)amino)methyl)-1-methyl-1H-pyrazol-4-yl)pyrimidin-5-yl)oxy)cyclohexane-1-carboxylic acid]	
23	CCOc1ccnc(NCc2c(-c3ncc(O[C@H]4CCC[C@H](C(=O)O)C4)cn3)cnn2C)n1 [Example 28, (1S,3S)-3-((2-(5-(((4-ethoxypyrimidin-2-yl)amino)methyl)-1-methyl-1H-pyrazol-4-yl)pyrimidin-5-yl)oxy)cyclohexane-1-carboxylic acid]	
151	CCOc1ccnc(N(C)Cc2c(-c3ncc(O[C@H]4CCC[C@H](C(=O)O)C4)cn3)cnn2C)n1 [Example 29]	
21	Cc1nc(-c2cnn(C)c2CNc2nccc(OCC(C)F)n2)ncc1O[C@H]1CCC[C@H](C(=O)O)C1 (stereo partly drawn) [Example 33, (1S,3S)-3-((2-(5-(((4-(2-fluoropropoxy)pyrimidin-2-yl)amino)methyl)-1-methyl-1H-pyrazol-4-yl)-4-methylpyrimidin-5-yl)oxy)cyclohexane-1-carboxylic acid]	
78	COCCOc1ccnc(NCc2c(-c3ncc(O[C@H]4CCC[C@H](C(=O)O)C4)c(C)n3)cnn2C)n1 [Example 34, (1S,3S)-3-((2-(5-(((4-(2-methoxyethoxy)pyrimidin-2-yl)amino)methyl)-1-methyl-lH-pyrazol-4-yl)-4-methylpyrimidin-5-yl)oxy)cyclohexane-1-carboxylic acid]	
207	CCc1ccnc(NCc2c(-c3ncc(O[C@H]4CCC[C@H](C(=O)O)C4)c(C)n3)cnn2C)n1 [Example 35, (1S,3S)-3-((2-(5-(((4-ethylpyrimidin-2-yl)amino)methyl)-1-methyl-1H-pyrazol-4-yl)-4-methylpyrimidin-5-yl)oxy)cyclohexane-1-carboxylic acid]	
27	COCCCOc1ccnc(NCc2c(-c3ncc(O[C@H]4CCC[C@H](C(=O)O)C4)c(C)n3)cnn2C)n1 [Example 36, (1S,3S)-3-((2-(5-(((4-(3-methoxypropoxy)pyrimidin-2-yl)amino)methyl)-1-methyl-1H-pyrazol-4-yl)-4-methylpyrimidin-5-yl)oxy)cyclohexane-1-carboxylic acid]	
13	CCCNc1nc(NCc2c(-c3ncc(O[C@H]4CCC[C@H](C(=O)O)C4)c(C)n3)cnn2C)ncc1F [Example 37, (1S,3S)-3-((2-(5-(((5-fluoro-4-(propylamino)pyrimidin-2-yl)amino)methyl)-1-methyl-1H-pyrazol-4-yl)-4-methylpyrimidin-5-yl)oxy)cyclohexane-1-carboxylic acid]	
41	CCNc1nc(NCc2c(-c3ncc(O[C@H]4CCC[C@H](C(=O)O)C4)c(C)n3)cnn2C)ncc1F [Example 38, (1S,3S)-3-((2-(5-(((4-(ethylamino)-5-fluoropyrimidin-2-yl)amino)methyl)-1-methyl-1H-pyrazol-4-yl)-4-methylpyrimidin-5-yl)oxy)cyclohexane-1-carboxylic acid]	
6.2	Cc1nc(-c2cnn(C)c2CNc2nccc(OCC(F)(F)C(F)F)n2)ncc1O[C@H]1CCC[C@H](C(=O)O)C1 [Example 39, (1S,3S)-3((4-methyl-2-(1-methyl-5-(((4-(2,2,3,3-tetrafluoropropoxy)pyrimidin-2-yl)amino)methyl)-1H-pyrazol-4-yl)pyrimidin-5-yl)oxy)cyclohexane-1-carboxylic acid]	
2.7	Cc1nc(-c2cnn(C)c2CNc2nccc(OCC(F)F)n2)ncc1O[C@H]1CCC[C@H](C(=O)O)C1 [Example 40, (1S,3S)-3-((2-(5-(((4-(2,2-difluoroethoxy)pyrimidin-2-yl)amino)methyl)-1-methyl-1H-pyrazol-4-yl)-4-methylpyrimidin-5-yl)oxy)cyclohexane-1-carboxylic acid]	
7.1	Cc1nc(-c2cnn(C)c2CNc2nccc(OCCCF)n2)ncc1O[C@H]1CCC[C@H](C(=O)O)C1 [Example 41, (1S,3S)-3-((2-(5-(((4-(3-fluoropropoxy)pyrimidin-2-yl)amino)methyl)-1-methyl-1H-pyrazol-4-yl)-4-methylpyrimidin-5-yl)oxy)cyclohexane-1-carboxylic acid]	
137	Cn1ncc(-c2ccc(O[C@H]3CCC[C@H](C(=O)O)C3)cn2)c1Nc1cccc(-c2cccc(F)c2)n1 [Example 42, (1S,3S)-3-{[6-(5-{[6-(3-fluorophenyl)pyridin-2-yl]amino}-1-methyl-1H-pyrazol-4-yl)pyridin-3-yl]oxy}cyclohexane-1-carboxylic acid]	
28	Cc1nc(-c2cnn(C)c2CNc2ncnc(C(C)C)n2)ncc1O[C@H]1CCC[C@H](C(=O)O)C1 [Example 43, (1S,3S)-3-((2-(5-(((4-isopropyl-1,3,5-triazin-2-yl)amino)methyl)-1-methyl-1H-pyrazol-4-yl)-4-methylpyrimidin-5-yl)oxy)cyclohexane-1-carboxylic acid]	
	C[C@@H](N)[C@H]1CC[C@H](C(=O)Nc2ccncc2)CC1 [Example Y-27632]	allodynia and hyperalgesia [3]: completely abolished
	Cc1noc(-c2ccc(CSCCC(=O)O)cc2)c1NC(=O)OC(C)c1ccccc1Cl (stereo not drawn) [Ki16425]	fibroblast chemotactic activity [4]: inhibited; in vitro migration in response to LPA and peritoneal fluid (ascites) [5]: effectively blocked; development of renal fibrosis, profile [6]: closely resembled the profile of LPA1 (−/−) mice; induction of CTGF expression by LPA [7]: almost completely suppressed; LPA-induced and ascites-induced invasion activity [8]: blocked
22	(1S,3S)-3-((2-(5-(((4-(2-fluoro-phenyl)pyrimidin-2-yl)amino) methyl)-1-methyl-1H-1,2,3-triazol-4-yl)-4-methylpyrimidin-5-yl)oxy)cyclohexanecarboxylic acid [Example 14]	

Compound	IC50 [2] [nM]	other results
Cc1nc(-c2cnn(C)c2CNc2nccc(OC3CC(F)(F)C3)n2)ncc1O[C@H]1CCC[C@H](C(=O)O)C1 [Example 31, (1S,3S)-3-((2-(5-(((4-(3,3-difluorocyclobutoxy)pyrimidin-2-yl)amino)methyl)-1-methyl-1H-pyrazol-4-yl)-4-methylpyrimidin-5-yl)oxy)cyclohexane-1-carboxylic acid]	122	
Cc1nc(-c2cnn(C)c2CNc2ccnc(OC3CC(F)(F)C3)n2)ncc1O[C@H]1CCC[C@H](C(=O)O)C1 [Example 32, (1S,3S)-3-((2-(5-(((2-(3,3-difluorocyclobutoxy)pyrimidin-4-yl)amino)methyl)-1-methyl-1H-pyrazol-4-yl)-4-methylpyrimidin-5-yl)oxy)cyclohexane-1-carboxylic acid]	619	
